Structures are written as SMILES.

One test relates to TEAD Reporter-MCF7 cell line. Put plainly: YAP/TEAD cellular activity assay: inhibition of TEAD-Luc activity in TEAD Reporter-MCF7 cell line. Conditions: Homo sapiens, MCF7, 24 h, TEAD Reporter-MCF7 cells, 24 hours incubation with compound, luciferase readout. The class given is cell-based, human. An outline of the steps: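 MCF7 cells stably carrying a TEAD-responsive firefly luciferase reporter were seeded at 10,000 cells/well, grown 20-24 h, then exposed to compounds for 24 h at 37° C. Luciferase read by ONE-Glo EX luminescence; percent inhibition and EC50 derived.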
With `CNS(=O)(=O)c1ccc(Oc2ccc(S(F)(F)(F)(F)F)cc2)c(-c2cn3c(n2)CCC3)c1` [4-18, 3-(6,7-dihydro-5H-pyrrolo[1,2-a]imidazol-2-yl)-N-methyl-4-[4-(pentafluoro-lambda~6~-sulfanyl)phenoxy]benzene-1-sulfonamide], the 50% effective concentration (EC50) turned out to be 15.2 nM.
Same read-out and setting: the same measure for `CNS(=O)(=O)c1ccc(Oc2ccc(C)cc2F)c(-c2cn3c(n2)CCC3)c1` [4-19, 3-(6,7-dihydro-5H-pyrrolo[1,2-a]imidazol-2-yl)-4-(2-fluoro-4-methylphenoxy)-N-methylbenzene-1-sulfonamide]: 15.3 nM.
In the case of `CNS(=O)(=O)c1ccc(Oc2ccc(Cl)cc2F)c(-c2cn3c(n2)CCC3)c1` [4-20, 4-(4-chloro-2-fluorophenoxy)-3-(6,7-dihydro-5H-pyrrolo[1,2-a]imidazol-2-yl)-N-methylbenzene-1-sulfonamide], the EC50 was determined as 15 nM.
The same measure, in the same setting: the same measure for `O=S(=O)(NCC1CC1)c1ccc(Oc2ccc(C(F)(F)F)cc2)c(-c2cnn3c2CCC3)c1` [5-1, N-(Cyclopropylmethyl)-3-(5,6-dihydro-4H-pyrrolo[1,2-b]pyrazol-3-yl)-4-(4-(trifluoromethyl)phenoxy)benzenesulfonamide]: 4410 nM; for `CNS(=O)(=O)c1ccc(Oc2ccc(C(F)(F)F)cc2)c(-n2cc3c(n2)CN(C)C3)c1` [6-1, N-Methyl-3-(5-methyl-5,6-dihydropyrrolo [3,4-c]pyrazol-2(4H)-yl)-4-(4-(trifluoromethyl)phenoxy)benzenesulfonamide]: 6690 nM; for `CNS(=O)(=O)c1ccc(Oc2ccc(C(F)(F)F)cc2)c(-n2cc3c(n2)CCC3)c1` [6-2, 3-(5,6-dihydrocyclopenta[c]pyrazol-2(4H)-yl)-N-methyl-4-[4-(trifluoromethyl)phenoxy]benzene-1-sulfonamide]: 68.5 nM.
The same measure, in the same setting: under `CCNS(=O)(=O)c1ccc(Oc2ccc(C(F)(F)F)cc2)c(-c2cn3c(n2)CCC3)c1` [7-2, 3-(6,7-dihydro-5H-pyrrolo[1,2-a]imidazol-2-yl)-N-ethyl-4-[4-(trifluoromethyl)phenoxy]benzene-1-sulfonamide] stands 35.2 nM.
Still for that read-out and setting: under `O=S(=O)(NC1CC1)c1ccc(Oc2ccc(C(F)(F)F)cc2)c(-c2cn3c(n2)CCC3)c1` [7-3, N-cyclopropyl-3-(6,7-dihydro-5H-pyrrolo[1,2-a]imidazol-2-yl)-4-(4-(trifluoromethyl)phenoxy)benzenesulfonamide] stands 17.8 nM.
Regarding `CNS(=O)(=O)c1ccc(Oc2ccc(F)cc2)c(-c2cc3n(n2)CCC3)c1` [8-2, 3-(5,6-dihydro-4H-pyrrolo[1,2-b]pyrazol-2-yl)-4-(4-fluorophenoxy)-N-methylbenzene-1-sulfonamide], the EC50 was 21.5 nM.
The same measure, in the same setting: the same measure for `CNS(=O)(=O)c1cnc(Oc2ccc(C(F)(F)F)cc2)c(-c2cc3n(n2)CCC3)c1` [8-3, 5-(5,6-dihydro-4H-pyrrolo[1,2-b]pyrazol-2-yl)-N-methyl-6-[4-(trifluoromethyl)phenoxy]pyridine-3-sulfonamide]: 1.3 nM; for `CNS(=O)(=O)c1ccc(Oc2ccc(C(F)F)cc2)c(-c2cc3n(n2)CCC3)c1` [8-4, 4-[4-(difluoromethyl)phenoxy]-3-(5,6-dihydro-4H-pyrrolo[1,2-b]pyrazol-2-yl)-N-methylbenzene-1-sulfonamide]: 46.6 nM; for `CNS(=O)(=O)c1ccc(Oc2ccc(C(F)(F)F)cc2)c(-c2cn3c(n2)C(O)CC3)c1` (stereo not shown) [9-1, 3-(7-Hydroxy-6,7-dihydro-5H-pyrrolo[1,2-a]imidazol-2-yl)-N-methyl-4-(4-(trifluoromethyl)phenoxy)benzenesulfonamide]: 907 nM.
Same read-out and setting: the same measure for `CNS(=O)(=O)c1ccc(Oc2ccc(C(F)(F)F)cc2)c(-c2cn3c(n2)C(C)(O)CC3)c1` (stereo not shown) [9-2, 3-(7-Hydroxy-7-methyl-6,7-dihydro-5H-pyrrolo[1,2-a]imidazol-2-yl)-N-methyl-4-(4-(trifluoromethyl)phenoxy)benzenesulfonamide]: 304 nM; for `CNS(=O)(=O)c1ccc(Oc2ccc(C(F)(F)F)cn2)c(-c2cn3c(n2)CCC3)c1` [10-1, 3-(6,7-Dihydro-5H-pyrrolo[1,2-a]imidazol-2-yl)-N-methyl-4-((5-(trifluoromethyl)pyridin-2-yl)oxy)benzenesulfonamide]: 49.8 nM; for `CNS(=O)(=O)c1cnc(Oc2ccc(C(F)(F)F)cc2)c(-c2cn3c(n2)CCC3)c1` [11-1, 5-(6,7-dihydro-5H-pyrrolo[1,2-a]imidazol-2-yl)-N-methyl-6-[4-(trifluoromethyl)phenoxy]pyridine-3-sulfonamide]: 8.7 nM.

The test is the same for the next values; noted with them: Homo sapiens; TEAD Reporter-MCF7 cells, 24 hours incubation with compound, luciferase readout.
Turning to `CC(C)NS(=O)(=O)c1ccc(Oc2ccc(C(F)(F)F)cc2)c(-c2cn3c(n2)CCC3)c1` [7-1, 3-(6,7-dihydro-5H-pyrrolo[1,2-a]imidazol-2-yl)-N-(propan-2-yl)-4-[4-(trifluoromethyl)phenoxy]benzene-1-sulfonamide], the EC50 was 138 nM.
The same measure, in the same setting: the same measure for `CNS(=O)(=O)c1ccc(Oc2ccc(Cl)cc2)c(-c2cc3n(n2)CCC3)c1` [8-1, 4-(4-Chlorophenoxy)-3-(5,6-dihydro-4H-pyrrolo[1,2-b]pyrazol-2-yl)-N-methylbenzene-1-sulfonamide]: 10.4 nM.

The test is the same for the next values; noted with them: TEAD Reporter-MCF7 cells, 24 hours incubation with compound, luciferase readout.
Regarding `CNS(=O)(=O)c1ccc(Oc2ccc(F)cc2F)c(-c2cn3c(n2)CCC3)c1` [4-21, 4-(2,4-difluorophenoxy)-3-(6,7-dihydro-5H-pyrrolo[1,2-a]imidazol-2-yl)-N-methylbenzene-1-sulfonamide], the EC50 was 55.9 nM.
On the same count and under the same terms, under `CNS(=O)(=O)c1ccc(Oc2ccc(F)cc2F)c(-c2cn3c(n2)CCC3)c1` [4-22, 4-(2,4-difluorophenoxy)-3-(6,7-dihydro-5H-pyrrolo[1,2-a]imidazol-2-yl)-N-methylbenzene-1-sulfonamide] stands 25.3 nM.

A word on the EC50: it is the concentration at which the effect is half-maximal.

The record behind these values is patent publication US20240083903A1, “ARYL ETHER COMPOUNDS AS TEAD MODULATORS” (Merck Sharp& Dohme LLC, priority 2021, published 2024).
